Assay results published in patent US20080200454A1, “CARBON-LINKED TETRAHYDRO-PYRAZOLO-PYRIDINE MODULATORS OF CATHEPSIN S” (priority 2007, published 2008).

Each molecule was assayed against Recombinant human cathepsin S (CatS) (Homo sapiens, UniProt P25774) (assay: Recombinant human cathepsin S (CatS) inhibition assay, fluorogenic substrate Z-Valine-Valine-Arginine-AMC). Details: not given.
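Also: Baculovirus-expressed CatS in pH 5.0 sodium acetate buffer with DTT and NaCl, fluorescence read each minute over 20 min, inhibition derived from rate slope.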

Chain of Recombinant human cathepsin S (CatS) (P25774 115-331): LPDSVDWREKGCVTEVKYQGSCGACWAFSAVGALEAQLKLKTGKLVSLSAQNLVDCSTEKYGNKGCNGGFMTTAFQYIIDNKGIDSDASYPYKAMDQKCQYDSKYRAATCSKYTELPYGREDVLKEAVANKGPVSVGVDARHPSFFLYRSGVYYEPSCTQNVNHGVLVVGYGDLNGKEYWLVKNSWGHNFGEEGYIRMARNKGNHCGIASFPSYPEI

Row | SMILES | IC50
1 | CN(C)c1ccc2c(n1)n(C1CCN(CC(O)Cn3nc(-c4ccc(Cl)c(C#Cc5ccc(Cl)cc5)c4)c4c3CCN(S(C)(=O)=O)C4)CC1)c(=O)n2C (stereo not shown) [Example 126, 3-[1-(3-{3-[4-Chloro-3-(4-chloro-phenylethynyl)-phenyl]-5-methanesulfonyl-4,5,6,7-tetrahydro-pyrazolo[4,3-c]pyridin-1-yl}-2-hydroxy-propyl)-piperidin-4-yl]-5-dimethylamino-1-methyl-1,3-dihydro-imidazo[4,5-b]pyridin-2-one] | 10 nM
2 | CS(=O)(=O)N1CCc2c(c(-c3ccc(Cl)c(CCCNS(=O)(=O)c4ccc(Cl)c(Cl)c4)c3)nn2CCCN2CCOCC2)C1 [Example 82, 3,4-Dichloro-N-(3-{2-chloro-5-[5-methanesulfonyl-1-(3-morpholin-4-yl-propyl)-4,5,6,7-tetrahydro-1H-pyrazolo[4,3-c]pyridin-3-yl]-phenyl}-propyl)-benzenesulfonamide] | 6100 nM
3 | C[C@H]1COCCN1C[C@H](O)Cn1nc(-c2ccc(Cl)c(C#Cc3ccc(CNCc4ccc(Cl)cc4)cc3)c2)c2c1CCN(C(N)=O)C2 [Example 257, 3-(4-Chloro-3-{4-[(4-chloro-benzylamino)-methyl]-phenylethynyl}-phenyl)-1-[(2S)-2-hydroxy-3-((3S)-3-methyl-morpholin-4-yl)-propyl]-1,4,6,7-tetrahydro-pyrazolo[4,3-c]pyridine-5-carboxylic acid amide] | 70 nM

Other lines, results leading:

Row | IC50 | SMILES
4 | 190 nM | CC(=O)N1CCc2c(c(-c3ccc(Cl)c(C#Cc4ccc(CNCc5ccc(Cl)cc5)cc4)c3)nn2CCCN2CCOC[C@@H]2C)C1 [Example 400, 1-(4-{[5-(5-Acetyl-1-{3-[(3S)-3-methylmorpholin-4-yl]propyl}-4,5,6,7-tetrahydro-1H-pyrazolo[4,3-c]pyridin-3-yl)-2-chlorophenyl]ethynyl}phenyl)-N-[(4-chlorophenyl)methyl]methanamine]
5 | 1310 nM | Cc1cccc(S(=O)(=O)NCCCc2cc(-c3nn(CCCN4CCC(N5CCCC5=O)CC4)c4c3CN(S(C)(=O)=O)CC4)ccc2Cl)c1 [Example 97, N-{3-[2-Chloro-5-(5-methanesulfonyl-1-{3-[4-(2-oxo-pyrrolidin-1-yl)-piperidin-1-yl]-propyl}-4,5,6,7-tetrahydro-1H-pyrazolo[4,3-c]pyridin-3-yl)-phenyl]-propyl}-3-methyl-benzenesulfonamide]
6 | 20 nM | CC1COCCN1CCCn1nc(-c2ccc(Cl)c(C#Cc3ccc(Cl)c(CNCC(=O)O)c3)c2)c2c1CCN(C(N)=O)C2 (stereo in doubt) [Example 221, N-{[5-({5-[5-(Aminocarbonyl)-1-{3-[(3S)-3-methylmorpholin-4-yl]propyl}-4,5,6,7-tetrahydro-1H-pyrazolo[4,3-c]pyridin-3-yl]-2-chlorophenyl}ethynyl)-2-chlorophenyl]methyl}glycine]
7 | 350 nM | Cc1ccc(CNCc2ccc(C#Cc3cc(-c4nn(CCCN5CCOCC5)c5c4CN(S(C)(=O)=O)CC5)ccc3Cl)cc2)cc1 [Example 75, (4-{2-Chloro-5-[5-methanesulfonyl-1-(3-morpholin-4-yl-propyl)-4,5,6,7-tetrahydro-1H-pyrazolo[4,3-c]pyridin-3-yl]-phenylethynyl]-benzyl)-(4-methyl-benzyl)-amine]
8 | 8520 nM | CS(=O)(=O)N1CCc2c(c(-c3ccc(Cl)c(C#Cc4nnc5n4CCNC5)c3)nn2CCCN2CCOCC2)C1 [Example 403, 3-({2-Chloro-5-[5-(methylsulfonyl)-1-(3-morpholin-4-ylpropyl)-4,5,6,7-tetrahydro-1H-pyrazolo[4,3-c]pyridin-3-yl]phenyl}ethynyl)-5,6,7,8-tetrahydro[1,2,4]triazolo[4,3-a]pyrazine]
9 | 1850 nM | CS(=O)(=O)N1CCc2c(c(-c3ccc(Cl)c(C#Cc4ccccn4)c3)nn2CCCN2CCOCC2)C1 [Example 22, 3-(4-Chloro-3-pyridin-2-ylethynyl-phenyl)-5-methanesulfonyl-1-(3-morpholin-4-yl-propyl)-4,5,6,7-tetrahydro-1H-pyrazolo[4,3-c]pyridine]

Same assay, conditions: CatS IC50

Row | SMILES | IC50
10 | Cc1ccsc1CNCc1ccc(C#Cc2cc(-c3nn(CCCN4CCOCC4)c4c3CN(S(C)(=O)=O)CC4)ccc2Cl)cc1 [Example 424, 1-[4-({2-Chloro-5-[5-(methylsulfonyl)-1-(3-morpholin-4-ylpropyl)-4,5,6,7-tetrahydro-1H-pyrazolo[4,3-c]pyridin-3-yl]phenyl}ethynyl)phenyl]-N-[(3-methyl-2-thienyl)methyl]methanamine] | 200 nM
11 | CS(=O)(=O)N1CCc2c(c(-c3ccc(Cl)c(C#Cc4ccc(CNCc5ccc(Cl)cc5)cc4)c3)nn2CCCN2CCCNCC2)C1 [Example 391, 1-{4-[(2-Chloro-5-{1-[3-(1,4-diazepan-1-yl)propyl]-5-(methylsulfonyl)-4,5,6,7-tetrahydro-1H-pyrazolo[4,3-c]pyridin-3-yl}phenyl)ethynyl]phenyl}-N-[(4-chlorophenyl)methyl]methanamine] | 260 nM
12 | CC(C)(C)C1CCN(CCCn2nc(-c3ccc(Cl)c(C#Cc4ccc5c(c4)CNCC5)c3)c3c2CCN(S(C)(=O)=O)C3)CC1 [Example 378, 7-({2-Chloro-5-[1-{3-[4-(1,1-dimethylethyl)piperidin-1-yl]propyl}-5-(methylsulfonyl)-4,5,6,7-tetrahydro-1H-pyrazolo[4,3-c]pyridin-3-yl]phenyl}ethynyl)-1,2,3,4-tetrahydroisoquinoline] | 80 nM
13 | C[C@H]1COCCN1CCCn1nc(-c2ccc(Cl)c(C#Cc3ccc(Cl)c(CNCc4ccccc4)c3)c2)c2c1CCN(S(C)(=O)=O)C2 [Example 286, 1-[2-Chloro-5-({2-chloro-5-[1-{3-[(3S)-3-methylmorpholin-4-yl]propyl}-5-(methylsulfonyl)-4,5,6,7-tetrahydro-1H-pyrazolo[4,3-c]pyridin-3-yl]phenyl}ethynyl)phenyl]-N-(phenylmethyl)methanamine] | 30 nM
14 | CS(=O)(=O)N1CCc2c(c(-c3ccc(Cl)c(C#Cc4cccc(CNCc5ccncc5)c4)c3)nn2CCCN2CCOCC2)C1 [Example 522, 1-[3-({2-Chloro-5-[5-(methylsulfonyl)-1-(3-morpholin-4-ylpropyl)-4,5,6,7-tetrahydro-1H-pyrazolo[4,3-c]pyridin-3-yl]phenyl}ethynyl)phenyl]-N-(pyridin-4-ylmethyl)methanamine] | 330 nM
15 | CN(Cc1ccc(Cl)cc1)Cc1ccc(C#Cc2cc(-c3nn(CCCN4CCSCC4)c4c3CN(S(C)(=O)=O)CC4)ccc2Cl)cc1 [Example 503, 1-[4-({2-Chloro-5-[5-(methylsulfonyl)-1-(3-thiomorpholin-4-ylpropyl)-4,5,6,7-tetrahydro-1H-pyrazolo[4,3-c]pyridin-3-yl]phenyl}ethynyl)phenyl]-N-[(4-chlorophenyl)methyl]-N-methylmethanamine] | 660 nM
16 | CNC(=O)[C@@H]1Cc2ccc(C#Cc3cc(-c4nn(CCCN5CCOCC5)c5c4CN(S(C)(=O)=O)CC5)ccc3Cl)cc2CN1 [Example 192, (3S)-7-({2-Chloro-5-[5-(methylsulfonyl)-1-(3-morpholin-4-ylpropyl)-4,5,6,7-tetrahydro-1H-pyrazolo[4,3-c]pyridin-3-yl]phenyl}ethynyl)-N-methyl-1,2,3,4-tetrahydroisoquinoline-3-carboxamide] | 80 nM
